SMILES strings stand for the structures.

In turn, `CNC(=O)c1cc(Oc2ccc(NC(=O)Nc3ccc(Cl)c(C(F)(F)F)c3)cc2)cc[n+]1[O-]` [Example 1, N-[4-chloro-3-(trifluoromethyl)phenyl]-N′-{4-[2-(N-methylcarbamoyl)-1-oxo-(4-pyridyloxy)]phenyl}urea] displayed a melting point of 232 to 234 °C.

As a reminder, the melting point is the temperature, or range, at which the solid turns liquid.
